Each block holds one molecule with its values, some of them ahead of it.
What was measured:
[1] = test system: carrageenan-induced paw edema in mice; experiment: Carrageenan paw edema model in mice; type: in vivo, mouse; conditions: C57BL/6 mice, compared with vehicle control group
Source text: Inflammation models induced by carrageenan are frequently used acute inflammation models. Carrageenan (Cg) is a strong chemical agent that functions in stimulating the release of inflammatory and proinflammatory mediators, including bradykinin, histamine, tachykinins, reactive oxygen, and nitrogen species. Typical signs of inflammation include edema, hyperalgesia, and erythema, which develop immediately following the treatment of carrageenan. This example evaluated the effect of AAV-mediated gene delivery of Lanadelumab on carrageenan-induced paw edema in mice.
In total eighty young adult (8-9 weeks old) male C57BL/6 mice were used for this study. Paw edema was induced by a single subcutaneous (s.c.) injection of 30 μL of 0.7% or 1% carrageenan solution. […] Paw volume was measured using a digital Plethysmometer prior to carrageenan injection, and at 2, 4, 6, 8, 24 and 48 hours after injection. All animals were sacrificed 48 hours after carrageenan injection. Liver and paw specimens were also collected at the necropsy.

[2] = target: activated human plasma kallikrein (Enzyme Research Laboratories) (human) (UniProt P03952); experiment: cell-based or functional assay

Molecule: O=C(O)Cc1ccccc1Nc1c(Cl)cccc1Cl [diclofenac, Diclofenac]
paw volume after carrageenan injection ([1]; 0.7% Cg model): significant decrease on paw volume was observed only at 4 and 24 hours
paw volume after carrageenan injection ([1]; 1.0% Cg model): significantly decreased the paw volume at 2, 4, 6, 8 and 24 hours

suppression of pKal activity (PFR-AMC fluorogenic kinetic enzymatic assay, antibody dose response) [2]: 0.1 nM
B1: Lanadelumab (GenScript), purified IgG (antibody, V domains shown)
VH: EVQLLESGGGLVQPGGSLRLSCAASGFTFSHYIMMWVRQAPGKGLEWVSGIYSSGGITVYADSVKGRFTISRDNSKNTLYLQMNSLRAEDTAVYYCAYRRIGVPRRDEFDIWGQGTMVTVSS
VL: DIQMTQSPSTLSASVGDRVTITCRASQSISSWLAWYQQKPGKAPKLLIYKASTLESGVPSRFSGSGSGTEFTLTISSLQPDDFATYYCQQYNTYWTFGQGTKVEIKR

percent reduction in pKal activity (serum diluted 1:25, day 49 post-administration vs day -7; PFR-AMC assay) [2]: 50%
B2: vectorized lanadelumab (AAV8 ApoE.hAAT.L02-derived) in serum, or in total IgG purified from serum, of treated C57BL/6 mice (antibody, V domains shown)
VH: EVQLLESGGGLVQPGGSLRLSCAASGFTFSHYIMMWVRQAPGKGLEWVSGIYSSGGITVYADSVKGRFTISRDNSKNTLYLQMNSLRAEDTAVYYCAYRRIGVPRRDEFDIWGQGTMVTVSS
VL: DIQMTQSPSTLSASVGDRVTITCRASQSISSWLAWYQQKPGKAPKLLIYKASTLESGVPSRFSGSGSGTEFTLTISSLQPDDFATYYCQQYNTYWTFGQGTKVEIKR

Source: US20220195462A1, “FULLY-HUMAN POST-TRANSLATIONALLY MODIFIED ANTIBODY THERAPEUTICS” (REGENXBIO INC., priority 2019, published 2022)
